Results on 70 compounds are retold here after PubChem BioAssay AID179 (DTP/NCI, 2004).

In general, EC50 refers to the concentration at which the effect is half-maximal. By IC50 is commonly meant the midpoint of a concentration-inhibition curve. High values mean weaker potency, low ones greater potency.

Each structure is given as a SMILES string. Several values for one entry are separate records, joined by “and”; a condition that tells them apart may be missing. Equal entries are not always repeated. Activity calls are given as the source filed them.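 Rule for the calls: active = compounds giving half or more protection of infected cells from virus-caused growth loss, again on retest; inactive = the rest.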 Where a SMILES comes first, the peptide text is derived from it. Bridges are numbered along the chain shown (N, C = ends). [ ]: non-standard residue; d: D form. The star is where a group is joined. ξ: configuration not given here. X16 = O=C(/C=C/C=C/C=C/C=C/C=C/C(=O)*)NC1=C(O)CCC1=O; NMeA = CN[C@@H](C)C(=O)O; ξF = NC(Cc1ccccc1)C(=O)O; ξA = CC(N)C(=O)O

In the experiment the test system is CEM cells HIV-1 protection, formazan growth assay. The experiment in a line: NCI AIDS Antiviral Assay. Conditions: for IC50: measured here: growth of uninfected CEM cells. Summed up: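 Protection of CEM cells against HIV-1 was scored from cell growth (soluble formazan) across five concentrations, with parallel uninfected cells. Lack of protection may reflect toxicity.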

Take `NS(=O)(=O)c1ccc(Nc2c3ccccc3nc3c(C(=O)N4CCN(CCO)CC4)cccc23)cc1`: the EC50 was above 43.7 µM and the half-maximal inhibitory concentration (IC50) is above 43.7 µM.
Regarding `CCCCCCCCCCCCCCCCCCOC(COP(=O)(O)OCC1CCC(n2cnc3c(=O)[nH]cnc32)O1)COP(=O)(O)OCC1OC(n2cc(C)c(=O)[nH]c2=O)CC1N=[N+]=[N-]` (stereo unspecified), the concentration for a half-maximal effect (EC50) was 1.17 µM and the IC50 was determined as 162 µM.
As for `Cc1ccc(C(=O)Nc2ccc(CP(=O)(O)O)cc2CP(=O)(O)O)cc1N`, the EC50 was above 174 µM and the 50% inhibitory concentration (IC50) is above 174 µM.
As for `C1=C(c2ccccc2)C(OC2Oc3ccccc3C=C2c2ccccc2)Oc2ccccc21` (stereo unspecified), the EC50 was above 31.6 µM and the IC50 was above 31.6 µM.
For the compound `O=C1NCC2(CCN(Cc3ccccc3)CC2)N1`, the EC50 was above 200 µM and the half-maximal inhibitory concentration (IC50) is above 200 µM.
For the compound `CCCN(CCC)C(=O)Cc1c2n(c3ccccc13)Cc1ccccc1-2`, the EC50 was above 15.1 µM and the IC50 amounted to 5.89 µM.
In the case of `C[C@@H](CC(=O)OCc1ccccc1)OC1OC(COC(=O)C(C)(C)C)C(OC(=O)C(C)(C)C)C(OC(=O)C(C)(C)C)C1OC(=O)C(C)(C)C` (stereo partly specified), the EC50 is above 200 µM and the IC50 was above 200 µM.
Regarding `COc1ccc(NC(=O)C2=C(SC)C(=O)N=C2N)cc1`, the EC50 was above 100 µM and the IC50 is above 100 µM.
Turning to `CN1CCN(CCCN2CC(=O)N3Cc4ccccc4CN3C(=O)C2)CC1`, the EC50 is above 200 µM and the IC50 was above 200 µM.
Consider `O=C1c2ccccc2CC12Cc1cc3c(cc1C2=O)CCC3` (stereo unspecified), for which the EC50 was above 200 µM and the half-maximal inhibitory concentration (IC50) is above 200 µM.
`COC(=O)[C@H](C)N1C(=O)N[C@@H](C(C)C)C1=O`: the EC50 is 0.617 µM and the concentration for half-maximal inhibition (IC50) was above 200 µM.
On the same counts, the results for `CN(C)CCNC(=O)c1cc([N+](=O)[O-])cn1C` are above 200 µM and above 200 µM.
As to `CC1(C)C=[N+]([O-])C(C)(C)N1`, the EC50 was above 200 µM and the half-inhibitory concentration (IC50) was above 200 µM.
In the case of `Brc1c(C#CCC2CCCCC2)ccc(C#CCC2CCCCC2)c1Br`, the EC50 was above 100 µM and the IC50 was above 100 µM.
For `CCC(=O)NC(Nc1cccc(F)c1C)(C(F)(F)F)C(F)(F)F`, the EC50 was above 200 µM and the half-maximal inhibitory concentration (IC50) is above 200 µM.
Turning to `Cc1cc(-c2ccc(C(=O)O)[nH]2)on1`, the EC50 was above 200 µM and the concentration for half-maximal inhibition (IC50) came out at 69.2 µM.
For `O=C1c2ccccc2C(=O)c2cc3c(cc21)CS(=O)C3`, the outcome was inactive.
Take `CCCCN(CCCC)/N=C/c1c2c(O)c3c(O)c(C)c4c(c3c1O)C(=O)C(C)(O/C=C/C(OC)C(C)C(OC(C)=O)C(C)C(O)C(C)C(O)C(C)/C=C/C=C(C)C(=O)N2)O4` (stereo unspecified): the EC50 is above 200 µM and the IC50 came to 9.12 µM.
Turning to `COC(=O)C12Oc3ccc(-c4ccc5c(c4O)C(=O)C4=CCC(C)C(O)C4(C(=O)OC)O5)c(O)c3C(=O)C1=CCC(C)C2O` (stereo unspecified), the EC50 was above 12 µM and the half-inhibitory concentration (IC50) stood at 1.78 µM.
For the compound `COC(=O)C1C(=O)N(C)C(=O)N2CCCC12` (stereo unspecified), the EC50 is above 200 µM and the IC50 is above 200 µM.
`COC1Cc2ccccc2C1O` (stereo unspecified): the outcome was inactive.
Turning to `O=c1[nH]c2ccsc2c(=O)n1COCc1ccccc1`, the EC50 was above 200 µM and the half-inhibitory concentration (IC50) is above 200 µM.
Turning to `COc1ccc(C2C3C(=O)OCCOC(=O)C3C2c2ccc(OC)c(OC)c2)cc1OC` (stereo unspecified), the EC50 is above 91.2 µM and the concentration for half-maximal inhibition (IC50) stood at 83.2 µM.
For the compound `O=C1C(OC(=O)c2ccccc2)=C(c2ccc(O)cc2)C(=O)C(OC(=O)c2ccccc2)=C1c1ccc(O)cc1`, the EC50 is above 39.8 µM and the IC50 was above 39.8 µM.
As for `COc1ccc(CCNC(=O)[C@H]2CCCC[C@@H]2CCO)cc1OC`, the EC50 is above 200 µM and the 50% inhibitory concentration (IC50) is above 200 µM.
`O=C1c2ccccc2C(=O)N1N1C(=O)c2ccccc2C1=O`: the EC50 was above 200 µM and the concentration for half-maximal inhibition (IC50) is above 200 µM.
On to `COCC12CCC(OC)C34C5CC6(O)C(OC)CC(OC(C)=O)(C5C6OC(=O)c5ccccc5)C(C(OC)C13)C4N(C)C2` (stereo unspecified), for which the outcome was inactive.
In the case of `CN1CCOC1c1ccccc1O` (stereo unspecified), the EC50 is above 200 µM and the concentration for half-maximal inhibition (IC50) is above 200 µM.
For the compound `OCCNC(=S)SSC(=S)NCCO`, the outcome was inactive.
For `CN=C(c1ccc(NC(=O)c2ccc(C(=O)Nc3ccc(C(=NC)N4CCOCC4)cc3)c(Cl)c2)cc1)N1CCOCC1`, the EC50 is above 200 µM and the half-inhibitory concentration (IC50) is above 200 µM.
For `CCCCCCCCCc1cc(-c2ccc(C=O)s2)sc1-c1ccc(C=O)s1`, the EC50 was above 200 µM and the IC50 was determined as 2.75 µM.
With `COC1CCC(=O)N1CC/C=C(/Br)[Si](C)(C)C` (stereo unspecified), the result was inactive.
For `CC1(C)OC2CC3COC(=O)C3CC2O1` (stereo unspecified), the EC50 was above 1170 µM and the IC50 was above 1170 µM.
Regarding `O=c1[nH]c2c(c(=O)[nH]1)SSC2`, the EC50 is above 200 µM and the IC50 came to 0.631 µM.
On the same counts, the results for `Cc1nc(C)c(N2CCN(Cc3ccccc3)CC2)c(=O)[nH]1` are above 200 µM and above 200 µM.
As for `CCCN=c1ssc(=O)n1CCC`, the EC50 was above 200 µM and the IC50 came to 11.2 µM.
For `NS(=O)(=O)c1nnc(NSc2ccc([N+](=O)[O-])cc2)s1`, in that order: above 200 µM and 46.8 µM.
For `CC1=C(C)CS(=O)(=O)N(c2ccccc2)C1`, the EC50 is above 200 µM and the IC50 was above 200 µM.
Consider `CCOC(=O)c1sc2c(C(=O)OCC)c3ccccn3c2c1C`, for which the outcome was inactive.
For `Cc1cc(Nc2ccc(S(=O)(=O)O)c3cc(S(=O)(=O)O)cc(S(=O)(=O)O)c23)c2ccccc2n1`, the EC50 was above 200 µM and the 50% inhibitory concentration (IC50) was above 200 µM.
On to `COC1/C=C/OC2(C)Oc3c(C)c(O)c4c(O)c(c(/C=N/N(C)C5OC(COC(=O)c6ccccc6)C(OC(=O)c6ccccc6)C5OC(=O)c5ccccc5)c(O)c4c3C2=O)NC(=O)C(C)=C/C=C/C(C)C(O)C(C)C(O)C(C)C(OC(C)=O)C1C` (stereo unspecified), for which the EC50 was above 200 µM and the IC50 came to 10 µM.
On the same counts, the results for `CCOC(=O)C(NC(=O)CC)(Nc1ccc(F)c(Cl)c1)C(F)(F)F` (stereo unspecified) are above 200 µM and above 200 µM.
For `COc1ccccc1NC(=S)N/N=C(/C)c1ccccn1`, in that order: above 0.2 µM and 0.0339 µM.
Take `COc1ccccc1/C=C1\Cc2ccccc2C1=O`: the EC50 was above 20.9 µM and the IC50 was above 20.9 µM.
Consider `CCCCc1ccc(OC2OC(COC(C)=O)C(OC(C)=O)C(OC(C)=O)C2OC(C)=O)cc1` (stereo unspecified), for which the EC50 was above 93.3 µM; the 50% inhibitory concentration (IC50) was 49 µM and > 93.3 µM.
`Cc1c(C2=NN=C(N=Nc3c(O)cccc3O)/C2=C/c2ccccc2)c(=O)n(-c2ccccc2)n1C`: the outcome was inactive.
Turning to `COc1ccc(C)cc1-c1cc(Sc2ccccc2)c(-c2cc(C)ccc2OC)o1`, the EC50 was above 53.7 µM and the half-maximal inhibitory concentration (IC50) is above 53.7 µM.
Regarding `Cc1cccc(C)c1NC(=O)C(=O)CC(=O)c1cccc([N+](=O)[O-])c1`, the EC50 was above 525 µM and the IC50 was above 525 µM.
Take `O=C(Nc1cccc(O)c1)C(=O)C(C(=O)c1ccc(Cl)c(Cl)c1)C1OC(=O)c2ccccc21` (stereo unspecified): the EC50 is above 141 µM and the half-maximal inhibitory concentration (IC50) was 64.6 µM.
Consider `CCCCCCCCCCCCCCCCOP(=O)(O)OP(=O)(O)OCC1OC(n2cnc3c(N)ncnc32)C(O)C1O` (stereo unspecified), for which the EC50 was above 200 µM and the IC50 turned out to be 120 µM.
As for `O=C1N/C(=N\N=C\c2ccccc2)C(c2ccccc2)O1` (stereo unspecified), the EC50 is above 200 µM and the half-maximal inhibitory concentration (IC50) stood at 33.9 µM.
For the compound `COc1cc2c(c3c1C1Oc4cc(OCc5ccccc5)c(O)cc4C1C(C)(C)O3)CCC(C)(C)O2` (stereo unspecified), the EC50 was above 200 µM and the 50% inhibitory concentration (IC50) amounted to 36.3 µM.
For the compound `CCOC(=O)CNS(=O)(=O)c1ccccc1`, the EC50 was above 200 µM and the half-maximal inhibitory concentration (IC50) was above 200 µM.
For `CCN(CC)CCNc1ccc(CO)c2oc3cc(Cl)ccc3c(=O)c12`, the EC50 was above 25.1 µM and the IC50 worked out at 4.57 µM.
Take `CC(c1ccc2c(c1)CCC1C2CC2OC23CC=CC(=O)[C@]13C)C1C[C@]2(C)O[C@]2(C)[C@H](O)O1` (stereo partly specified): the EC50 is above 200 µM and the half-maximal inhibitory concentration (IC50) turned out to be 45.7 µM.
Consider `C=C(C)C1CC2C(C)=C(OC(C)=O)C1n1c(=O)c3cc4ccccc4cc3c(=O)n12` (stereo unspecified), for which the EC50 was above 46.8 µM and the 50% inhibitory concentration (IC50) is above 46.8 µM.
Regarding `CC1NC(=O)[C@H](C)N(C)C(=O)[C@@H]2CCCN2C(=O)[C@@H](NC(=O)C(Cc2ccccc2)NC(=O)/C=C/C=C/C=C/C=C/C=C/C(=O)NC2=C(O)CCC2=O)COC(=O)[C@@H]2CCCN2C1=O` (stereo partly specified) (X16-[ξF]SP[NMeA][ξA]P; ester 2-C), the EC50 is above 151 µM and the IC50 is above 151 µM.
`CCCCCCCCCCCCS(=O)(=O)O`: the outcome was inactive.
On to `COC(=O)C1C(NCc2ccccc2)=CC(C)(C)C(C(=O)OC)C1c1ccccc1` (stereo unspecified), for which the EC50 was above 200 µM and the IC50 was 166 µM.
As to `Cc1ccc(N=NC(C2=NC(=O)CS2)c2nc3ccccc3[nH]2)cc1` (stereo unspecified), the EC50 is above 7.41 µM and the IC50 is above 7.41 µM.
Regarding `O=C1CN(CCN2CCOCC2)CC(=O)N2Cc3ccccc3CN12`, the EC50 was above 200 µM and the IC50 is above 200 µM.
For `CCCCCCCCCCC(c1cc(Cl)c(O)c(C(=O)O)c1)c1cc(Cl)c(O)c(C(=O)O)c1`, the EC50 is above 1480 µM and the half-inhibitory concentration (IC50) is 79.4 µM.
On the same counts, the results for `S=c1nc(Oc2ccc(Cl)c(Cl)c2)[nH]c(=S)[nH]1` are above 23.4 µM and above 23.4 µM.
Turning to `Cc1[nH]nc2c1NC(=O)OC2C` (stereo unspecified), the EC50 was above 1480 µM and the IC50 came out at 1200 µM.
In the case of `O=[N+]([O-])C1C2C=CC(C2)[C@H]1c1ccc(Cl)cc1Cl` (stereo partly specified), the result was inactive.
Regarding `CC1CC(C)C(=O)C(C(=O)CC2CC(=O)NC2=O)C1` (stereo unspecified), the EC50 was above 200 µM and the IC50 is above 200 µM.
For `CCOC(=O)c1c(NC(=S)NCc2ccccc2)sc2c1CCN(C)C2`, the EC50 was above 151 µM and the half-maximal inhibitory concentration (IC50) is 95.5 µM.
With `O=[N+]([O-])c1ccc(P2(=O)Nc3ccccc3N2)cc1`, the EC50 is above 245 µM and the IC50 was determined as 70.8 µM.
In the case of `COc1ccc(C)cc(=O)c1O`, the EC50 was above 251 µM and the IC50 is 14.5 µM.
For `CN1CCN(C(=S)N(C)C(=O)c2cccs2)CC1`, in that order: above 891 µM and above 891 µM.
